System: D5 Th1 T cell line
Assay: nucleic acid expression profile of D5 Th1 T cell line stimulated with 500 nM ionomycin, 1 μM CsA plus ionomycin or 20 nM PMA plus ionomycin; 19K chip, second replicate
Assay type: cell-based, murine
Parameters: expression level of Msa.15983.0_f_at / expression level of Msa.1669.0_f_at / expression level of Msa.18713.0_g_at / expression level of D86609_s_at / expression level of TC19211_at / expression level of TC21156_at / expression level of TC24045_at / expression level of TC30384_g_at / expression level of TC3225_at / expression level of TC38978_at / expression level of TC39080_at / expression level of TC17495_at: unit not given here
Description: D5 or primary T cells from NFAT1−/− or wild type DO11.10 transgenic mice were stimulated for 2, 6 or 16 hours with 500 nM ionomycin, 20 nM PMA plus 500 nM ionomycin, or 1 μM CsA plus 500 nM ionomycin. Total RNA was isolated with an RNeasy kit (QIAGEN). Ten μg of total RNA was quantitatively amplified and biotin-labeled as described (Byrne et al., (2000) “Preparation of mRNA for Expression Monitoring” Current Protocols in Molecular Biology (John Wiley & Sons, Inc.) pp. 22.22.21-22.22.13). […] Chips were washed, stained with SA-PE and read using an Affymetrix GeneChip® scanner and accompanying gene expression software. Labeled bacterial RNAs of known concentration were spiked into each chip hybridization mix to generate an internal standard curve, allowing normalization between chips and conversion of raw hybridization intensity values to mRNA frequency (mRNA molecules per million).
Nucleic acid expression profiles were obtained from a T cell line at multiple time points and in various T cell states. The D5 Th1 T cell line was stimulated in three different ways: 1) ionomycin alone (e.g., causing the regulatory factor NFAT to move from the cytoplasm to the nucleus); 2) ionomycin+PMA (e.g., causing both NFAT and the transcription factor AP-1 to enter the nucleus); 3) ionomycin +cyclosporin A (CsA) (e.g., preventing NFAT from entering the nucleus in response to ionomycin). […] Cells were stimulated for 0, 2, 6, and 16 hours. […] The experiment was done twice (i.e., with two replicates, Rep. 1 and Rep. 2). Nucleic acid expression at the 2, 6 and 16 hour timepoints was compared to nucleic acid expression at 0 hours.
The nucleic acid expression data was stored in a computer database. A database query was used to identify all nucleic acids that were deemed “increasing” or “decreasing” in response to ionomycin (relative to the 0 hour sample) in at least one timepoint in Rep. 1, and the nucleic acids were also deemed “increasing” or “decreasing” in response to ionomycin in Rep. 2.
To test the hypothesis that NFAT in the absence of AP-1 and NFKB induced a genetic program of anergy, genes induced in D5 T cells by ionomycin stimulation alone were evaluated (FIGS. 1, 2 and 6). Samples from D5 cells stimulated with ionomycin plus CsA, which blocks anergy induction, and ionomycin plus PMA, which pharmacologically mimic complete stimulation through the TCR and CD28 were included. RNA was prepared from unstimulated D5 T cells and from cells stimulated for 2, 6 or 16 h under these three conditions, and gene transcription profiles were evaluated using Affymetrix oligonucleotide arrays (FIG. 6A).

C[C@H](CCC(=O)O)C[C@H](C)C[C@H](C)C(=O)/C=C(\O)[C@H](C)C[C@H](C)C/C=C/[C@@H](C)[C@@H](O)[C@@H](C)[C@@H](O)C[C@@H]1CC[C@@](C)([C@H]2CC[C@@](C)([C@@H](C)O)O2)O1 [Ionomycin, ionomycin]
expression level of D86609_s_at (2 h): 34
expression level of ET63436_at (2 h): 113
expression level of MIP1-B_at (2 h): 110.5
expression level of Msa.11439.0_s_at (2 h): 19
expression level of Msa.15983.0_f_at (2 h): 44
expression level of Msa.1669.0_f_at (2 h): 27
expression level of Msa.18713.0_g_at (2 h): 83
expression level of Msa.21745.0_s_at (2 h): 8
expression level of TC3225_at (2 h): 34
expression level of TC14671_g_at (2 h): 7
expression level of TC16364_at (2 h): 4
expression level of TC16828_at (2 h): 4
expression level of TC17132_at (2 h): 121
expression level of TC17495_at (2 h): 9
expression level of TC17558_at (2 h): 41
expression level of TC18221_at (2 h): 9
expression level of TC19211_at (2 h): 48
expression level of TC21156_at (2 h): 20
expression level of TC23346_s_at (2 h): 5
expression level of TC23450_s_at (2 h): 16
expression level of TC24045_at (2 h): 15
expression level of TC24067_at (2 h): 9
expression level of TC25965_at (2 h): 42
expression level of TC27326_g_at (2 h): 3
expression level of TC29889_at (2 h): 11
expression level of TC30384_g_at (2 h): 39
expression level of TC30935_at (2 h): 93
expression level of TC30992_s_at (2 h): 28
expression level of TC31681_at (2 h): 56
expression level of TC33206_at (2 h): 45
expression level of TC33833_at (2 h): 23
expression level of TC34186_at (2 h): 40
expression level of TC36089_at (2 h): 156
expression level of TC36583_at (2 h): 29
expression level of TC37631_at (2 h): 18
expression level of TC38094_at (2 h): 18
expression level of TC38978_at (2 h): 6
expression level of TC39012_at (2 h): 64
expression level of TC39080_at (2 h): 14
expression level of TC39762_at (2 h): 16
expression level of TC40487_g_at (2 h): 16
expression level of TC41014_at (2 h): 23
expression level of U44731_s_at (2 h): 69
expression level of X67914_s_at (2 h): 53
expression level of Z31202_s_at (2 h): 10
expression level of aa144045_s_at (2 h): 24
expression level of aa174748_at (2 h): 31
expression level of c81206_rc_at (2 h): 15
expression level of k00083_s_at (2 h): 41
expression level of x12531_s_at (2 h): 68
expression level of D86609_s_at (6 h): 34
expression level of ET63436_at (6 h): 60
expression level of MIP1-B_at (6 h): 85.5
expression level of Msa.11439.0_s_at (6 h): 22
expression level of Msa.15983.0_f_at (6 h): 60
expression level of Msa.1669.0_f_at (6 h): 32
expression level of Msa.18713.0_g_at (6 h): 58
expression level of Msa.21745.0_s_at (6 h): 12
expression level of TC3225_at (6 h): 22
expression level of TC14671_g_at (6 h): 15
expression level of TC16364_at (6 h): 5
expression level of TC16828_at (6 h): 17
expression level of TC17132_at (6 h): 155
expression level of TC17495_at (6 h): 12
expression level of TC17558_at (6 h): 57
expression level of TC18221_at (6 h): 17
expression level of TC19211_at (6 h): 22
expression level of TC21156_at (6 h): 25
expression level of TC23346_s_at (6 h): 12
expression level of TC23450_s_at (6 h): 21
expression level of TC24045_at (6 h): 15
expression level of TC24067_at (6 h): 19
expression level of TC25965_at (6 h): 35
expression level of TC27326_g_at (6 h): 4
expression level of TC29889_at (6 h): 10
expression level of TC30384_g_at (6 h): 29
expression level of TC30935_at (6 h): 60
expression level of TC30992_s_at (6 h): 9
expression level of TC31681_at (6 h): 31
expression level of TC33206_at (6 h): 19
expression level of TC33833_at (6 h): 23
expression level of TC34186_at (6 h): 38
expression level of TC36089_at (6 h): 149
expression level of TC36583_at (6 h): 26
expression level of TC37631_at (6 h): 12
expression level of TC38094_at (6 h): 10
expression level of TC38978_at (6 h): 3
expression level of TC39012_at (6 h): 42
expression level of TC39080_at (6 h): 11
expression level of TC39762_at (6 h): 15
expression level of TC40487_g_at (6 h): 8
expression level of TC41014_at (6 h): 18
expression level of U44731_s_at (6 h): 54
expression level of X67914_s_at (6 h): 39
expression level of Z31202_s_at (6 h): 17
expression level of aa144045_s_at (6 h): 17
expression level of aa174748_at (6 h): 19
expression level of c81206_rc_at (6 h): 13
expression level of k00083_s_at (6 h): 45
expression level of x12531_s_at (6 h): 49
expression level of D86609_s_at (16 h): 45
expression level of ET63436_at (16 h): 107
expression level of MIP1-B_at (16 h): 97.5
expression level of Msa.11439.0_s_at (16 h): 36
expression level of Msa.15983.0_f_at (16 h): 56
expression level of Msa.1669.0_f_at (16 h): 50
expression level of Msa.18713.0_g_at (16 h): 49
expression level of Msa.21745.0_s_at (16 h): 12
expression level of TC3225_at (16 h): 37
expression level of TC14671_g_at (16 h): 30
expression level of TC16364_at (16 h): 10
expression level of TC16828_at (16 h): 31
expression level of TC17132_at (16 h): 126
expression level of TC17495_at (16 h): 12
expression level of TC17558_at (16 h): 98
expression level of TC18221_at (16 h): 25
expression level of TC19211_at (16 h): 22
expression level of TC21156_at (16 h): 31
expression level of TC23346_s_at (16 h): 13
expression level of TC23450_s_at (16 h): 22
expression level of TC24045_at (16 h): 25
expression level of TC24067_at (16 h): 31
expression level of TC25965_at (16 h): 50
expression level of TC27326_g_at (16 h): 5
expression level of TC29889_at (16 h): 13
expression level of TC30384_g_at (16 h): 53
expression level of TC30935_at (16 h): 86
expression level of TC30992_s_at (16 h): 12
expression level of TC31681_at (16 h): 22
expression level of TC33206_at (16 h): 12
expression level of TC33833_at (16 h): 23
expression level of TC34186_at (16 h): 50
expression level of TC36089_at (16 h): 165
expression level of TC36583_at (16 h): 31
expression level of TC37631_at (16 h): 29
expression level of TC38094_at (16 h): 16
expression level of TC38978_at (16 h): 8
expression level of TC39012_at (16 h): 77
expression level of TC39080_at (16 h): 24
expression level of TC39762_at (16 h): 37
expression level of TC40487_g_at (16 h): 13
expression level of TC41014_at (16 h): 33
expression level of U44731_s_at (16 h): 25
expression level of X67914_s_at (16 h): 36
expression level of Z31202_s_at (16 h): 45
expression level of aa144045_s_at (16 h): 22
expression level of aa174748_at (16 h): 21
expression level of c81206_rc_at (16 h): 39
expression level of k00083_s_at (16 h): 72
expression level of x12531_s_at (16 h): 84

From patent US20030064380A1, “Anergy-regulated molecules” (The Center For Blood Research, Inc., priority 2001, published 2003)
